According to US9657307B2, “Herbicide resistance gene and use thereof” (HANGZHOU RUIFENG BIOTECHNOLOGY LIMITED INC., priority 2010, dated 2017):

How the values were obtained:
[1] = tested on: transformation line N-Z1-At6; assay: Herbicide and herbicide mixture resistance of transformation line N-Z1-At6; assay type: in vivo, Arabidopsis thaliana; conditions: sprayed during the 4th-6th leaf stage
Text: The resistance capability of N-Z1-At6 to other herbicides was further tested. Atrazine (90% water dispersible granule, Syngenta), Dicamba (48% aqueous formulation, Syngenta), flumiclorac-pentyl (10% emulsifiable concentrate, Sumitomo Chemical Corporation), bentazon, penoxsulam, bensulfuron and tribenuron are respectively sprayed during the 4th-6th leaf stage.
The transformation line N-Z1-At6 was further tested for the resistance to herbicide mixture.

[2] = tested on: untransformed Arabidopsis thaliana seeds; assay: Germination and growth on glyphosate medium; assay type: in vivo; conditions: growth medium containing 0.5 mM glyphosate
Protocol: The seeds obtained from Arabidopsis thaliana infected by Agrobacterium were allowed to germinate and grow in Arabidopsis thaliana growth medium containing 0.5 mM glyphosate. […] However, the seeds that introduced with T-DNA can grow and develop, followed by flowering and harvesting seeds. A total of 35 individual glyphosate-resistant seedlings (T0 generation) were obtained, and the seeds thereof were harvested.

[3] = tested on: Non-transgenic recipient parent Arabidopsis thaliana; assay: Herbicide spray on non-transgenic Arabidopsis thaliana; assay type: in vivo; conditions: 10 days after spraying
Protocol: (§1) Nicosulfuron resistance test: 10 plants for each line were sprayed with nicosulfuron (the dose is equal to 6 mg/square meter, the effective spraying concentration was 80 mg/L, and the product was Yu Nongle, Zhejiang Gold-Ox pesticides LTD). Non-transgenic recipient parent Arabidopsis thaliana was used as negative control. Their nicosulfuron resistance levels were evaluated 10 days after spraying nicosulfuron. […] All of the non-transgenic recipient parent Arabidopsis thaliana died.
(§2) Mesotrione resistance test: 10 plants for each line were sprayed with mesotrione (the dose is equal to 15 mg/square meter, the effective spraying concentration was 200 mg/L, and the product was 10% mesotrione suspension, Syngenta). Non-transgenic recipient parent Arabidopsis thaliana was used as negative control. Their mesotrione resistant levels were evaluated 10 days after spraying mesotrione. […] All of the non-transgenic recipient parent Arabidopsis thaliana died.
(§3) 2,4-D resistance test: 10 plants for each line were sprayed with 2,4-D (the dose was equal to 150 mg/square meter, the spraying concentration was 1.4 g/L, and the product was soluble powder of […], Haiyan boda fine chemical Co., Ltd). Non-transgenic recipient parent Arabidopsis thaliana was used as negative control. […] All of the non-transgenic recipient parent Arabidopsis thaliana died.

Cynodon dactylon = assay: Herbicide spray resistance determination of Cynodon dactylon; assay type: in vivo; conditions: observed after 10 days
Text: (§4) Cynodon dactylon is a common weed as well as a turfgrass.

[4] = tested on: transgenic Arabidopsis thaliana transformation lines (vector pCambia1300-35S/G10-35S/N-Z1); assay: Herbicide resistance of transgenic Arabidopsis thaliana, pCambia1300-35S/G10-35S/N-Z1; assay type: in vivo; conditions: 10 days after spraying
Text: A total of 35 individual transformation lines were obtained using vector pCambia1300-35S/G10-35S/N-Z1. The T1 generation seedlings (obtained after the germination of T0 generation seeds) were sprayed with glyphosate diluted at 1:200 (41% aqueous solution of glyphosate isopropylamine salt, Xin'an chemical company) to remove the isolated plants without introduction of glyphosate-resistant gene. The survived plants were subjected to herbicide resistance test after growing to 4th-6th leaf stages.
as §1, §2, §3

[5] = tested on: transgenic rice strains obtained by pCam1300-N-Z2 vector transformation; assay: Herbicide resistance of transgenic rice, pCam1300-N-Z2 vector; assay type: in vivo; conditions: after 10 days, 10 strains
Text: The method for obtaining transgenic rice was implemented using existing technology (Lu Xiongbin, Gong zuxun, 1998, Life Science, 10: 125-131; Liu fan et al., 2003, Molecular Plant Breeding, 1:108-115). Ripe and plump “Xiushui 134” seeds were selected and deshelled, and the calli were induced and produced which would be used as transformation material. Agrobacterium containing target gene vectors pCam1300-N-Z1 and pCam1300-N-Z2 was taken and streaked onto a plate, and single colony was selected and inoculated to prepare Agrobacterium for transformation. The calli to be transformed were placed into Agrobacterium liquid (containing acetosyringone) with proper concentration, allowing the Agrobacterium to be conjugated to the surface of the calli, and then the calli were transferred to a coculture medium and cocultured for 2-3 days. The transformed calli were rinsed with aseptic water and transferred to a selective medium containing appropriate hygromycin, and cultured for screening for two months (subcultured one time during the period). The calli after being screened with good viability were transferred to a pre-differentiation medium and cultured for about 20 days, and then the pre-differentiated calli were transferred to a differential medium and irradiated with light for 14 hours for differentiation and sprouting. […]

[6] = tested on: non-transgenic strains of the same variety "XiuShui 134"; assay: Herbicide spray on non-transgenic rice; assay type: in vivo; conditions: after 10 days
Protocol: (§5) 10 different transgenic rice strains obtained by pCam1300-N-Z1 vector transformation and non-transgenic strains of the same variety “XiuShui 134” were selected and planted in a greenhouse (at a temperature of 15° C.-25° C.), and nicosulfuron (Yu Nongle, zhejiang Gold-Ox pesticides LTD) was sprayed at 6 mg/square meter when the seedlings have a height of about 10 cm.
(§6) 10 different transgenic rice strains obtained by pCam1300-N-Z1 vector transformation and non-transgenic strains of the same variety “XiuShui 134” were selected and planted in a greenhouse (at a temperature of 15° C.-25° C.), and mesotrione (10% mesotrione suspension, Syngenta) was sprayed at 15 mg/square meter when the seedlings have a height of about 10 cm.
10 different transgenic rice strains obtained by pCam1300-N-Z2 vector transformation and non-transgenic strains of the same variety “XiuShui 134” were selected and planted in the greenhouse (at a temperature of 15° C.-25° C.), and nicosulfuron was sprayed at 6 mg/square meter when the seedlings have a height of about 10 cm.
10 different transgenic rice strains obtained by pCam1300-N-Z2 vector transformation and non-transgenic strains of the same variety “XiuShui 134” were selected and planted in the greenhouse (at a temperature of 15° C.-25° C.), and mesotrione was sprayed at 15 mg/square meter when the seedlings have a height of about 10 cm.

[7] = tested on: control weeds including green bristlegrass, wild oats, Amaranthus retroflexus, humulus, purslane, Monochoria vaginalis, piemarker and nutgrass galingale herb; assay: Herbicide spray on control weeds; assay type: in vivo; conditions: observed after 10 days
Text: as §4

[8] = tested on: transgenic rice strains obtained by pCam1300-N-Z1 vector transformation; assay: Herbicide resistance of transgenic rice, pCam1300-N-Z1 vector; assay type: in vivo; conditions: after 10 days; for transgenic strains with slow growth / transgenic strains without any observable growth inhibition: of 10 strains; for death rate of transgenic strains: seedlings about 10 cm, 10 strains
Text: The method for obtaining transgenic rice was implemented using existing technology (Lu Xiongbin, Gong zuxun, 1998, Life Science, 10: 125-131; Liu fan et al., 2003, Molecular Plant Breeding, 1:108-115). Ripe and plump “Xiushui 134” seeds were selected and deshelled, and the calli were induced and produced which would be used as transformation material. Agrobacterium containing target gene vectors pCam1300-N-Z1 and pCam1300-N-Z2 was taken and streaked onto a plate, and single colony was selected and inoculated to prepare Agrobacterium for transformation. The calli to be transformed were placed into Agrobacterium liquid (containing acetosyringone) with proper concentration, allowing the Agrobacterium to be conjugated to the surface of the calli, and then the calli were transferred to a coculture medium and cocultured for 2-3 days. The transformed calli were rinsed with aseptic water and transferred to a selective medium containing appropriate hygromycin, and cultured for screening for two months (subcultured one time during the period). The calli after being screened with good viability were transferred to a pre-differentiation medium and cultured for about 20 days, and then the pre-differentiated calli were transferred to a differential medium and irradiated with light for 14 hours for differentiation and sprouting. After 2-3 weeks, the regenerated plants having resistance were transferred to a rooting medium containing nicosulfuron (0.1 mg/L) for strengthening the seedling and growing roots, and then the regenerated plants were rinsed to remove agar and transferred into a greenhouse to be used as identification materials.
as §5, §6

[9] = mesotrione 15 mg/square meter (200 mg/L)
[10] = nicosulfuron 6 mg/square meter (80 mg/L), of 35 lines

Structure (SMILES): CCNc1nc(Cl)nc(NC(C)C)n1 [Atrazine]
- resistance level of N-Z1-At6 compared with non-transgenic parental plants [1]: obviously improved

Structure (SMILES): COc1c(Cl)ccc(Cl)c1C(=O)O [Dicamba]
- resistance level of N-Z1-At6 compared with non-transgenic parental plants [1]: obviously improved

Structure (SMILES): COc1cc(OC)nc(NC(=O)NS(=O)(=O)Cc2ccccc2C(=O)O)n1 [bensulfuron]
- resistance level of N-Z1-At6 compared with non-transgenic parental plants [1]: obviously improved

Structure (SMILES): CC(C)N1C(=O)c2ccccc2NS1(=O)=O [bentazon]
- resistance level of N-Z1-At6 compared with non-transgenic parental plants [1]: obviously improved

Structure (SMILES): CCCCCOC(=O)COc1cc(N2C(=O)C3=C(CCCC3)C2=O)c(F)cc1Cl [flumiclorac-pentyl]
- resistance level of N-Z1-At6 compared with non-transgenic parental plants [1]: obviously improved

Structure (SMILES): O=C(O)CNCP(=O)(O)O [glyphosate]
- growth of untransformed seeds after germination [2]: yellowed and died

Structure (SMILES): CS(=O)(=O)c1ccc(C(=O)C2C(=O)CCCC2=O)c([N+](=O)[O-])c1 [mesotrione]
- death of non-transgenic recipient parent [3, 9]: died
- death of Cynodon dactylon (Cynodon dactylon; mesotrione 1000 mg/L sprayed): no death
- killed [4, 9]: 11 plants
- whitening at the early stage, most recovered later [4, 9]: 18 plants
- transformation lines with no obvious herbicide damage ([4]; mesotrione 15 mg/square meter (200 mg/L), of 35 lines): 6 lines
- death of transgenic strains (N-Z2) ([5]; mesotrione 15 mg/square meter): died
- death of non-transgenic strains ([6]; mesotrione 15 mg/square meter): died
- death of control weeds ([7]; mesotrione 1000 mg/L sprayed): died due to the occurrence of whitening
- transgenic strains with slow growth ([8]; mesotrione 15 mg/square meter): 7 strains
- transgenic strains without any observable growth inhibition ([8]; mesotrione 15 mg/square meter): 3 strains
- death rate of transgenic strains ([8]; mesotrione 15 mg/square meter): 0%

Structure (SMILES): COc1cc(OC)nc(NC(=O)NS(=O)(=O)c2ncccc2C(=O)N(C)C)n1 [nicosulfuron]
- death of non-transgenic recipient parent ([3]; nicosulfuron 6 mg/square meter (80 mg/L)): died
- death of Cynodon dactylon (Cynodon dactylon; nicosulfuron 400 mg/L sprayed): no death
- lines killed [4, 10]: 6 lines
- lines with different degrees of growth inhibition [4, 10]: 8 lines
- transformation lines with no obvious herbicide damage [4, 10]: 21 lines
- death of transgenic strains (N-Z2) ([5]; nicosulfuron 6 mg/square meter): died
- death of non-transgenic strains ([6]; nicosulfuron 6 mg/square meter): died
- death of control weeds ([7]; nicosulfuron 400 mg/L sprayed): killed
- transgenic strains with slow growth ([8]; nicosulfuron 6 mg/square meter): 2 strains
- transgenic strains without any observable growth inhibition ([8]; nicosulfuron 6 mg/square meter): 8 strains
- death rate of transgenic strains ([8]; nicosulfuron 6 mg/square meter): 0%

Structure (SMILES): COc1cnc(OC)n2nc(NS(=O)(=O)c3c(OCC(F)F)cccc3C(F)(F)F)nc12 [penoxsulam]
- resistance level of N-Z1-At6 compared with non-transgenic parental plants [1]: obviously improved

Structure (SMILES): COc1nc(C)nc(N(C)C(=O)NS(=O)(=O)c2ccccc2C(=O)O)n1 [tribenuron]
- resistance level of N-Z1-At6 compared with non-transgenic parental plants [1]: obviously improved
